Data reported in patent US10697970B2, “S100A9 levels for predicting lenalidomide and erythropoietin responsiveness” (H. LEE MOFFITT CANCER CENTER AND RESEARCH INSTITUTE, INC., priority 2015, dated 2020).

How the values were obtained:
HepG2 cells [1] = experiment: IL10 mRNA qPCR in HepG2 cells; format: cell-based, human
Experimental: RNA was isolated using the RNAeasy Mini Kit (Qiagen, Valencia, Calif., USA) followed by iScript cDNA synthesis (Bio-Rad, Hercules, Calif., USA) and amplification using iQ SYBR Green Supermix (Bio-Rad, Herculed, Calif., USA). The relative level of gene expression for each experimental sample was calculated by the ΔΔCt method. Untreated cells were the experimental control and the housekeeping gene GAPDH was the endogenous control.

MDS PBMC = experiment: LPS-induced TNFα production by MDS PBMC; format: cell-based, human; conditions: MDS PBMC (n=7), 1 μM lenalidomide 30 minutes prior to LPS (1 μg/ml), 24 h
NF-κB = experiment: Cytoplasmic and nuclear NF-κB western blotting in HepG2 cells; format: cell-based, human; conditions: HepG2, 24 h, 1 μM lenalidomide pre-incubation, then S100A9 or TNFα
Experimental: After treatment for 24 h, cells were harvested and lysed in 1×RIPA buffer supplemented with protease and phosphatase inhibitors for classical western blotting. For the nuclear extraction, cells were lysed in ice with buffer A, then pelleted. After removed supernatant (cytoplasmic fraction), pellets were lysed in ice with buffer B and pelleted (nuclear fraction) (Nuclear extraction kit, Abcam, Cambridge, USA). Lysates were pelleted and 50 μg of protein was resolved by SDS-PAGE and transferred to PVDF membranes. The membranes were blocked for 30 min in 5% non-fat dry milk solution in PBST (PBS with 0.1% Tween 20) and incubated with the indicated antibodies. Membranes were developed using ECL according to the manufacturer's protocol (GE Healthcare, Little Chalfont, UK). Densitometry analysis was performed using Image J Software.

MDS patients = conditions: cited from earlier work
[2] = tested on: PBMC isolated from non-del(5q) MDS patients; experiment: S100A9 production by PBMC from MDS patients (ELISA); format: cell-based, human; conditions: PBMC from MDS patients (n=7), 1 μM lenalidomide, 24 hours
Experimental: (§1) Quantitation of human S100A9/MRP14 in patient serum and supernatant of the HepG2 cell line was performed using CircuLex S100A9/MRP14 ELISA Kit (MBL, Nagano, Japan). Quantitative measurement of human TNFα and IL-1β from serum patients and supernatant of HepG2 cell line were performed using Human IL-1β ELISA Kit and Human TNFα ELISA Kit (Life Technologies, Carlsbad, Calif., USA). Quantitation of human Epo in patient serum and HepG2 cell line supernatant was performed using Human Erythropoietin ELISA kit (Stemcell Technologies, Vancouver, BC, Canada). All samples were performed in duplicate.
(§2) Serum samples used for ELISA analysis were collected from 4 centers (Taussig Cancer Institute in Cleveland; AOU Careggi, University of Firenze; Saint Louis hospital in Paris; H. Lee Moffitt Cancer Center in Tampa). Peripheral blood mononuclear cells (PBMC) were collected from patients seen at Moffitt Cancer Center All patients were consented on Institutional Review Boards, or equivalent, approved protocols in hematology clinics at each center, and from the Eastern Cooperative Oncology Group (ECOG) E2905 trial (NCT00843882). All routine clinical and biological data were available.

non-del(5q) MDS patients = experiment: Erythroid response to ESA or lenalidomide treatment by serum TNFα / S100A9 concentration; format: in vivo, human
Source text: as §2
Data are expressed as mean±standard error for continuous variables, or percentage of total for non-continuous variables. Spearman's correlation, Mann-Withney and Jonckheere-Terpstra tests were used for analysis of continuous variables. Chi-square test was used for analysis of non-continuous variables. Differences between the results of comparative tests were considered significant if the two-sided p-value was less than 0.05. All statistical analyses were performed using SPSS v.22 software (IBM SPSS Statistics).

HepG2 cells [3] = experiment: Epo elaboration by HepG2 cells (ELISA); format: cell-based, human
Experimental: HepG2 cells, acquired from American Type Culture Collection (ATCC, Manassas, Va.), were grown in EMEM supplemented with 10% FBS and 1% penicillin/streptomycin solution. Cells were maintained at 37° C. under 5% CO2.
as §1

[4] = lenalidomide or lenalidomide + Epo

Compound: Nc1cccc2c1CN(C1CCC(=O)NC1=O)C2=O (centres unmarked) [lenalidomide, Lenalidomide]
- IL10 gene message following IL-1β treatment (HepG2 cells [1]; HepG2, 1 μM lenalidomide pre-incubation): no modulatory effect
- IL10 mRNA expression compared to S100A9 or TNFα treatment alone (HepG2 cells [1]; HepG2, 24 h, 1 μM lenalidomide 30 minutes prior to S100A9 (1 μg/ml) or TNFα (10 ng/ml)): significantly increased
- TNFα production induced by LPS (MDS PBMC): significantly reduced
- NF-κB in nuclear fractions (NF-κB): significant reduction
- response in patients with an interstitial deletion of Chromosome 5q (MDS patients; MDS patients with del 5q): high rate of response
- patients without 5q deletions who benefit from therapy (MDS patients; MDS patients without 5q deletions): Approximately 25%
- S100A9 elaboration [2]: significant reduction
- erythroid response rate, high (above the median) serum TNFα (non-del(5q) MDS patients; [4]): 14%
- erythroid response rate, low (below the median) serum TNFα (non-del(5q) MDS patients; [4]): 64%
- erythroid response rate, high TNFα and low S100A9 (non-del(5q) MDS patients; lenalidomide treatment): 12%
- erythroid response rate, low TNFα and high S100A9 concentrations (non-del(5q) MDS patients; lenalidomide treatment): 62%
- effect on IL-1β-directed suppression of Epo elaboration (HepG2 cells [3]; HepG2, 1 μM lenalidomide 30 minutes prior to IL-1β (10 ng/ml)): no effect
- suppression of Epo production by S100A9 after lenalidomide pre-incubation (HepG2 cells [3]; HepG2, 1 μM lenalidomide 30 minutes prior to S100A9 (1 μg/ml)): 65%
- suppression of Epo elaboration by TNFα after lenalidomide pre-incubation (HepG2 cells [3]; HepG2, 1 μM lenalidomide 30 minutes prior to TNFα (10 ng/ml)): 0%
